Results from ChEMBL document CHEMBL5032503 (J Med Chem, 2021).
pEC50, pKd: −log10 of the molar value. Each block holds one compound with its values, some of them ahead of it. The source made the active and inactive calls. No cut-off for these calls is given here.

Tests used:
[1] = biological target: T1, Nuclear receptor subfamily 2 group E member 1 (Homo sapiens, UniProt Q9Y466); assay: Stabilization of human recombinant TLX LBD assessed as change in melting temperature at 500 uM by DSF assay
[2] = biological target: T1, Nuclear receptor subfamily 2 group E member 1; assay: Agonist activity at in human TLX LBD expressed in human HEK293T cells coexpressing Gal4-VP 16 assessed as fold […] in reporter activity at 100 uM measured after 14 hrs by luciferase reporter gene assay relative to control; assay type: cell-based; conditions: filed as agonist
[3] = biological target: T1, Nuclear receptor subfamily 2 group E member 1; assay: Inverse agonist activity at full length TLX activating element expressed in human HEK293T cells coexpressing human full-length TLX/Gal4-VP 16 assessed as fold […] in reporter activity at 100 uM by luciferase reporter gene assay relative to control; assay type: cell-based; conditions: filed as inverse agonist
[4] = biological target: T1, Nuclear receptor subfamily 2 group E member 1; assay: Agonist activity at human TLX LBD expressed in human HEK293T cells coexpressing Gal4-VP 16 incubated for 14 hrs at 100 uM; assay type: cell-based
[5] = biological target: T1, Nuclear receptor subfamily 2 group E member 1; assay: Agonist activity at in human TLX LBD expressed in human HEK293T cells coexpressing Gal4-VP 16 assessed as remaining activity measured after 14 hrs by luciferase reporter gene assay relative to control; assay type: cell-based; conditions: filed as agonist
[6] = biological target: T1, Nuclear receptor subfamily 2 group E member 1; assay: Agonist activity at in human TLX LBD expressed in human HEK293T cells coexpressing Gal4-VP 16 assessed as increase in reporter activity measured after 14 hrs by luciferase reporter gene assay relative to control; assay type: cell-based; conditions: for pEC50: read-out: EC50; for EC50: hek293t
[7] = biological target: T1, Nuclear receptor subfamily 2 group E member 1
Description: Binding affinity to TLX LBD expressed in His6-tagged Escherichia coli Rosetta assessed as binding constant measured after 300 sec at 200 mM by isothermal titration calorimetry

T98G [8] = assay: Cytotoxicity against human T98G cells assessed as cell viability by WST-1 assay; assay type: functional, cell-based
T98G [9] = assay: Effect on TLX regulated gene expression in human T98G cells assessed as decrease in TET3 mRNA expression at 50 uM after 8 hrs by qRT-PCR analysis; assay type: functional, cell-based
T98G [10] = assay: Effect on TLX regulated gene expression in human T98G cells assessed as decrease in PTEN mRNA expression at 50 uM after 8 hrs by qRT-PCR analysis; assay type: functional, cell-based
T98G [11] = assay: Effect on TLX regulated gene expression in human T98G cells assessed as induction of mRNA expression at 50 uM after 8 hrs by qRT-PCR analysis; assay type: functional, cell-based
[12] = biological target: T1, Nuclear receptor subfamily 2 group E member 1; assay: Agonist activity at full length TLX activating element expressed in human HEK293T cells coexpressing human full-length TLX/Gal4-VP 16 assessed as decrease in reporter activity at 100 uM by luciferase reporter gene assay relative to control
[13] = biological target: T1, Nuclear receptor subfamily 2 group E member 1; assay: Agonist activity at TAE expressed in human HEK293T cells coexpressing human full-length TLX/Gal4-VP 16 assessed as renilla luciferase reporter activity incubated for 14 hrs by Dual-glo luciferase
[14] = Effect on Gal4-VP16 plasmid transfected in human HEK293T cells assessed as reporter activity incubated for 14 hrs by luciferase assay; assay type: functional, HEK-293T
T98G [15] = assay: Effect on TLX regulated gene expression in human T98G cells assessed as induction of SIRT1 mRNA expression at 50 uM after 8 hrs by qRT-PCR analysis; assay type: functional, cell-based
T98G [16] = assay: Inhibition of cell migration in human T98G cells at 75 uM incubated for 24 hrs by crystal violet staining based by Boyden chamber method; assay type: functional
T98G [17] = assay: Induction of apoptosis in human T98G cells assessed as viable cells at 100 nM measured after 72 hrs by propidium iodide staining based flow cytometry; assay type: functional, cell-based
[18] = biological target: T1, Nuclear receptor subfamily 2 group E member 1; assay: Agonist activity at full length TLX activating element expressed in human HEK293T cells coexpressing human full-length TLX/Gal4-VP 16 assessed as fold increase in reporter activity at 100 uM by luciferase reporter gene assay relative to control; assay type: cell-based; conditions: filed as agonist
[19] = biological target: T1, Nuclear receptor subfamily 2 group E member 1; assay: Inverse agonist activity at in human TLX LBD expressed in human HEK293T cells coexpressing Gal4-VP 16 assessed as fold increase in reporter activity at 100 uM measured after 14 hrs by luciferase reporter gene assay relative to control; assay type: cell-based; conditions: filed as inverse agonist
[20] = biological target: T1, Nuclear receptor subfamily 2 group E member 1; assay: Agonist activity at human TLX LBD expressed in human HEK293T cells coexpressing Gal4-VP 16 incubated for 14 hrs at 300 uM; assay type: cell-based

T1 sequence (Q9Y466 whole entry, the tested form may be a part): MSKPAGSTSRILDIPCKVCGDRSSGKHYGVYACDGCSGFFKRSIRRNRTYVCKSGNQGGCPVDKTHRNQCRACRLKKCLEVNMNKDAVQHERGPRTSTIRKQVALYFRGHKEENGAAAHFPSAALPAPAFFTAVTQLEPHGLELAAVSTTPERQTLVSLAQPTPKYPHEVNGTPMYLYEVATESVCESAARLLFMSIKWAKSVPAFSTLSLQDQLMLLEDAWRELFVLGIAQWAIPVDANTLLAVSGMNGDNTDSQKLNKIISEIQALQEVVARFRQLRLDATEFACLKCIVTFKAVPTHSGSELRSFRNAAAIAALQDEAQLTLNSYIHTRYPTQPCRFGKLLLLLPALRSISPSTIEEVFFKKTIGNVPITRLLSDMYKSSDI

SMILES: CNC(=O)c1cc(Cl)c(N)cc1OC
ΔTm [1]: -0.3 °C
fold change (FC) [2]: 0.46
fold change (FC) [3]: 1.05

SMILES: CCCCOc1cc(C(=O)NC)c2ccccc2n1
ΔTm [1]: 1.1 °C
fold change (FC) [18]: 0.68
fold change (FC) [2]: 32

SMILES: CC(=O)N1CCN(c2ccc(O)cc2)CC1
ΔTm [1]: 0.8 °C
fold change (FC) [18]: 0.86
fold change (FC) [2]: 0.5

SMILES: CCCNCC(O)COc1ccccc1C(=O)CCc1ccccc1 (racemic) [PROPAFENONE]
fold change (FC) [5]: 0.2
pEC50 [6]: 4.33

SMILES: Nc1cnc2ccccc2n1
ΔTm ([1]; filed as modulator): 1.2 °C
fold change (FC) [2]: 2.9
fold change (FC) [3]: 1.8

SMILES: O=C1Nc2ccccc2Nc2ccccc21
ΔTm [1]: 0.6 °C
fold change (FC) [2]: 0.47
fold change (FC) [3]: 1.12

SMILES: COc1ccc2[nH]c(SC)nc2c1
ΔTm ([1]; filed as modulator): 0.5 °C
fold change (FC) [19]: 2.7
fold change (FC) [2]: 2.7
fold change (FC) [3]: 1.33

SMILES: CC(C)NCC(O)c1ccc(NS(C)(=O)=O)cc1 (racemic) [SOTALOL]
Activity (T98G [8]): Active
EC50 [6]: Not Active
cell migration inhibition (active/not active call) (T98G [16]): inactive
Activity (T98G [17]): inactive

SMILES: O=C(O)CCCc1ccc(-c2ccccc2)cc1
ΔTm [1]: -1.4 °C
fold change (FC) [18]: 0.41
fold change (FC) [2]: 0.34

SMILES: Cn1c(=O)[nH]c2[nH]cnc2c1=O
ΔTm ([1]; filed as modulator): 1.1 °C
fold change (FC) [19]: 3.3
fold change (FC) [3]: 1.47

SMILES: Cc1cn(-c2cc(N)cc(C(F)(F)F)c2)cn1
ΔTm [1]: -3.2 °C
fold change (FC) [18]: 0.65
fold change (FC) [2]: 0.44

SMILES: CC(C)NCC(O)COc1ccnc2ccccc12 (centres undefined)
Activity (T98G [8]): Active
Activity [20]: inactive
cell migration inhibition (active/not active call) (T98G [16]): inactive
Activity (T98G [17]): inactive

SMILES: c1ccc2c3c([nH]c2c1)CNCC3 [TRYPTOLINE]
ΔTm ([1]; filed as agonist): 1.2 °C
fold change (FC) [18]: 2.15
fold change (FC) [5]: 0.4
fold change (FC) [2]: 0.47
pEC50 [6]: 4.13
fold change (FC) [3]: 2.2
pEC50 [13]: < 4.00

SMILES: O=c1[nH]nc(Cc2ccccc2)c2ccccc12
ΔTm [1]: -0.5 °C
fold change (FC) [18]: 0.57
fold change (FC) [2]: 0.17

SMILES: NC1CCc2[nH]c3ccccc3c2C1 (centres undefined)
ΔTm ([1]; filed as agonist): 2.4 °C
fold change (FC) [18]: 1.98
fold change (FC) [5]: 0.5
fold change (FC) [2]: 0.45
pEC50 [6]: 4.17
fold change (FC) [3]: 2.1
pEC50 [13]: < 4.00

SMILES: CN1CC(=O)N2[C@H](c3ccc4c(c3)OCO4)c3[nH]c4ccccc4c3C[C@@H]2C1=O
fold change (FC) [5]: 0.62
pEC50 [6]: 5.30

SMILES: Clc1ccc(C(c2ccccc2)N2CCNCC2)cc1 (centres undefined)
ΔTm [1]: -2.3 °C
fold change (FC) [18]: 0.57
fold change (FC) [2]: 0.37

SMILES: CC(C)NCC(O)COc1ccc(CC(N)=O)cc1 (racemic) [ATENOLOL]
Activity (T98G [8]): Active
Activity (T98G [9]): inactive
Activity (T98G [10]): inactive
EC50 [6]: Not Active
Activity (T98G [11]): inactive
Activity (T98G [15]): inactive
cell migration inhibition (active/not active call) (T98G [16]): inactive
Activity (T98G [17]): inactive

Further lines, with some results ahead:

Activity [4]: inactive
SMILES: OC(COc1cccc2ccccc12)CN1CCCCC1 (centres undefined)

fold change (FC) [5]: 0.25
pEC50 [6]: 4.14
SMILES: CC(C)NC[C@H](O)COc1cccc2ccccc12 [LEVOPROPRANOLOL]

pKd [7]: 6.30
fold change (FC) [5]: 0.08
pEC50 [6]: 4.49
pEC50 [12]: 4.49
pEC50 [13]: 4.43
SMILES: CC(C)NCC(O)COc1cccc2ccccc12 (racemic) [PROPRANOLOL]
Activity (T98G [8]): Active
Activity (T98G [9]): Active
Activity (T98G [10]): Active
Activity (T98G [11]): Active
Activity [14]: 8%
Activity (T98G [15]): Active
cell migration inhibition (active/not active call) (T98G [16]): Active
Activity (T98G [17]): inactive

fold change (FC) [5]: 0.42
pEC50 [6]: 4.30
SMILES: CC(C)NCCCOc1cccc2ccccc12

fold change (FC) [5]: 0.4
pEC50 [6]: 4.40
SMILES: CC(C)NC[C@@H](O)COc1cccc2ccccc12 [DEXPROPRANOLOL]

fold change (FC) [5]: 0.29
pEC50 [6]: 4.08
SMILES: CC(C)OCC(O)COc1cccc2ccccc12 (centres undefined)

fold change (FC) [5]: 0.28
pEC50 [6]: 4.28
SMILES: COC(CNC(C)C)COc1cccc2ccccc12 (centres undefined)

pEC50 [6]: < 4.00
SMILES: CC(C)N(C)CC(O)COc1cccc2ccccc12 (centres undefined)

ΔTm ([1]; filed as agonist): 1.5 °C
fold change (FC) [5]: 0.07
fold change (FC) [2]: 0.27
pEC50 [6]: 4.71
fold change (FC) [3]: 2.3
pEC50 [13]: 4.37
SMILES: NCC(O)COc1cccc2ccccc12 (centres undefined)
